# Measurements published in patent publication EP0073505B1, “Benzo-heterocycles” (priority 1981, dated 1983).
# Test system: Meerschweinchen
# Test: Heart rate increase in the guinea pig, i.v.
# Assay type: in vivo
# Conditions: selectivity Broncholyse vs. Herzfrequenzsteigerung
# Excerpt: Für die pharmakologischen Prüfungen werden die üblichen Testmethoden und Versuchstiere oder Organe verwendet. Pharmakologisch sind die erfindungsgemässen Verbindungen gegenüber Handelsprodukten der gleichen Indikation zum Teil sehr deutlich unterschieden. Neben einer guten Wirkungsdauer zeigt sich z.B. eine besonders deutliche Selektivität im Verhältnis Broncholyse zu Herzfrequenzsteigerung. So ist z. […] Günstig sind im allgemeinen auch die Resorptionsverhältnisse. So ist der Resorptionsquotient [formula] z.B. für die Verbindung 7 der Tabelle 3 nur 1,1, so dass die orale Wirkung praktisch ebenso gross ist wie die intravenöse. Die LD50-Werte liegen, z.B. an der Maus, so weit über der therapeutischen Dosis, dass eine günstige therapeutische Breite gegeben ist.
smiles,measurement,value
CC[C@H](NC(C)C)[C@H](O)c1ccc(O)c2c1OCC(=O)N2 (relative stereo) [Beispiel 1],ED50 i.v. der Herzfrequenzsteigerung relative to ED50 i.v. der Broncholyse,mehr als zehnmal so gross
